Results on nine compounds are retold here after patent publication US9057727B2, “Screening methods using G-protein coupled receptors and related compositions” (The General Hospital Corporation, priority 2007, dated 2015).

Ends that are not written are not given here. Peptide text beside a SMILES is read from it.

Usually IC50 stands for the concentration needed to halve the response being measured.

Test [1] concerns the target T1, human PTHR, G protein-uncoupled conformation (R^0) (Homo sapiens, UniProt Q03431).
T1 construct: expressed in transfected cells; host or cells: COS-7, transient (Fugene-6)
T1 sequence (Q03431 27-593): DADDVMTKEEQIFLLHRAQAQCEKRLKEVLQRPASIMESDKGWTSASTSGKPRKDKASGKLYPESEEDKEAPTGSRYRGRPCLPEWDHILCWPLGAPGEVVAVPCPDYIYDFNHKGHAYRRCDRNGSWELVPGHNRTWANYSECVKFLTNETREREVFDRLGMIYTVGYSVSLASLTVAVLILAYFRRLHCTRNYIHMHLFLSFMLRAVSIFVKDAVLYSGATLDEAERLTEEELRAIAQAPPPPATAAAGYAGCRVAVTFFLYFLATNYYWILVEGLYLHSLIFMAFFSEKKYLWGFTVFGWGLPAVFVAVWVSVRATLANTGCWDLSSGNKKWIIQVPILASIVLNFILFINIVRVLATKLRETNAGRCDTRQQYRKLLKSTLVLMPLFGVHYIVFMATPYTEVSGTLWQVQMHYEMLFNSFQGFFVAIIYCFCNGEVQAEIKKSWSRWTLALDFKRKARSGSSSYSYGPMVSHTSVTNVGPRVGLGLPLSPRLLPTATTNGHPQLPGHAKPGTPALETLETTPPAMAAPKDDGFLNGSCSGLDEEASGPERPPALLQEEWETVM
The experiment in a line: Competition binding to R0 conformation of hPTHR (COS-7 membranes, GTPγS, 125I-PTH(1-34) tracer). Particulars: for R0:RG: Table 5, fold weaker affinity for R0 than RG; for screen human PIR R0 (% parent): parent PTHrP(1-28)NH. The protocol: Membranes were prepared from COS-7 cells transfected with the hPTHR alone. GTPγS ([…]) was added to the binding reactions so as to functionally uncouple receptor-heterotrimeric G protein complexes, thus enriching for the R^0 (and R) conformations, relative to RG.
Reactions contained a total membrane protein concentration of 20 to 100 μg/mL, and a total radioactivity concentration of approximately 150,000 cpm/ml. Unlabeled peptide ligands and/or GTPγS (Sigma-Aldrich Inc. St. Louis, Mo.) were added to the reactions as indicated.
Membranes, tracer radioligand, and various concentrations of unlabeled ligands and/or GTPγS were incubated in the wells for 90 minutes, following which, the reaction plates were processed by rapid vacuum filtration to separate bound from free radioligand, as described above. […] For both radioligands, the non-specific binding was determined in reactions containing a saturating concentration of the unlabeled analog of the radioligand. The specifically bound radioactivity was calculated as a percent of the radioactivity specifically bound in the absence of a competing ligand or GTPγS.
To assess the capacities of various unlabeled peptide ligands to bind to the G protein-uncoupled and G protein-coupled PTHR conformations (R^0 and RG, respectively), membranes were prepared from transiently transfected COS-7 cells and the following assay conditions.

Test [2] relates to LLCPK1-B64 cells or SaOS-2 cells. In words: cAMP screen of substituted PTHrP(1-28) analogs (% parent). The format is cell-based. Particulars: parent PTHrP(1-28)NH. The method, then:
Alanine substitution at position 18, 22, 25 and 26 increased activity in at least one cell type. These positions were further substituted to various types of amino acids, and cAMP activity was analyzed in LLCPK1-B64 cells (FIG. 27C) or SaOS-2 cells (FIG. 27D). Cells were treated with analogs at 3×10^−9M in the presence of IBMX for 30 minutes at room temperature. Responses for each analog were normalized to the response for the parent (native) PTHrP(1-28) peptide. Alanine substitutions were A^15 to A^17 (SEQ ID NO:152-154), A^18 (SEQ ID NO:34), A^19 to A^21 (SEQ ID NO:155-157), A^22 (SEQ ID NO:39), A^23 to A^25 (SEQ ID NO:158-160), A^26 (SEQ ID NO:46), and A^27 to A^28 (SEQ ID NO:161-162). Substitutions at position 18 were A^18 (SEQ ID NO: 34), G^18 (SEQ ID NO:163), S^18 (SEQ ID NO:35), M^18 (SEQ ID NO:36), L^18 (SEQ ID NO:164), F^18 (SEQ ID NO:37), N^18 (SEQ ID NO:165), E^18 (SEQ ID NO:38), and K^18 (SEQ ID NO:166). Substitutions at position 22 were A^22 (SEQ ID NO:39), G^22 (SEQ ID NO:167), and S^22 to K^22 (SEQ ID NO:40-45). Substitutions at position 26 were A^26 (SEQ ID NO:46), G^26 (SEQ ID NO:168), S^26 (SEQ ID NO:47), L^26 (SEQ ID NO:169), N^26 (SEQ ID NO:48), W^26 to E^26 (SEQ ID NO:170-171), and K^26 to R^26 (SEQ ID NO:49-50). Substitutions at position 25 were G^25 to S^25 (SEQ ID NO:172-173), L^25 (SEQ ID NO:51), N^25 (SEQ ID NO:174), W^25 (SEQ ID NO:52), E^25 (SEQ ID NO:175), and K^25 to R^25 (SEQ ID NO:53-54). […]

The target in test [3] is T2, human PTHR, G protein-coupled conformation (RG) (Homo sapiens, UniProt Q03431).
T2 construct: expressed in transfected cells; host or cells: COS-7, transient (Fugene-6); membranes
T2 sequence (Q03431 27-593): T1 sequence (Q03431 27-593)
The experiment in a line: Competition binding to RG conformation of hPTHR (COS-7 membranes, GαsND, 125I-[Aib1,3,M]PTH(1-15) tracer). Particulars: parent PTHrP(1-28)NH.

As to `CC[C@H](C)[C@H](NC(=O)[C@H](CCC(=O)O)NC(=O)[C@H](C)NC(=O)[C@@H](NC(=O)[C@H](C)N)C(C)C)C(=O)N[C@@H](CCC(N)=O)C(=O)N[C@@H](CC(C)C)C(=O)N[C@@H](CCSC)C(=O)N[C@@H](Cc1c[nH]cn1)C(=O)N[C@@H](CCC(N)=O)C(=O)N[C@@H](CCCNC(=N)N)C(=O)N[C@@H](C)C(=O)N[C@@H](CCCCN)C(=O)N[C@@H](Cc1c[nH]c2ccccc12)C(=O)N[C@@H](CC(C)C)C(=O)N[C@@H](CC(N)=O)C(=O)N[C@@H](CO)C(=O)N[C@@H](CCSC)C(=O)N[C@@H](CCCNC(=N)N)C(=O)N[C@@H](CCCNC(=N)N)C(=O)N[C@H](C(=O)N[C@@H](CCC(=O)O)C(=O)N[C@@H](Cc1ccccc1)C(=O)N[C@@H](CC(C)C)C(=O)N[C@@H](CCCNC(=N)N)C(=O)N[C@@H](CCCCN)C(=O)N[C@@H](CCCCN)C(=O)N[C@@H](CC(C)C)C(=O)N[C@@H](CCC(N)=O)C(=O)N[C@@H](CC(=O)O)C(=O)N[C@H](C(=O)N[C@@H](Cc1c[nH]cn1)C(=O)N[C@@H](CC(N)=O)C(=O)N[C@@H](Cc1ccccc1)C(=O)O)C(C)C)C(C)C` [F23,Mc-PTH(1-34)OH, F^23,Mc-PTH(1-34)OH] (H-AVAEIQLMHQRAKWLNSMRRVEFLRKKLQDVHNF-OH; N-terminus assumed), the IC50 in test [1] (Table 4, human PTH1 receptor, read-out: R0 binding IC50) was determined as 1.2 ± 0.4 nM. For the same compound, the R0/RG ratio in test [1] (human PTH receptor on COS-7 cell membranes) is reported as 5.

As to `CSCC[C@H](NC(=O)[C@H](CC(C)C)NC(=O)[C@H](CCC(N)=O)NC(=O)[C@H](Cc1c[nH]cn1)NC(=O)[C@H](CCC(=O)O)NC(=O)[C@H](CO)NC(=O)[C@@H](NC(=O)[C@@H](N)CO)C(C)C)C(=O)N[C@@H](Cc1c[nH]cn1)C(=O)N[C@@H](CC(N)=O)C(=O)N[C@@H](CC(C)C)C(=O)NCC(=O)N[C@@H](CCCCN)C(=O)N[C@@H](Cc1c[nH]cn1)C(=O)N[C@@H](CC(C)C)C(=O)N[C@@H](CC(N)=O)C(=O)N[C@@H](CO)C(=O)N[C@@H](CCSC)C(=O)N[C@@H](CCC(=O)O)C(=O)N[C@@H](CCCNC(=N)N)C(=O)N[C@H](C(=O)N[C@@H](CCC(=O)O)C(=O)N[C@@H](Cc1c[nH]c2ccccc12)C(=O)N[C@@H](CC(C)C)C(=O)N[C@@H](CCCNC(=N)N)C(=O)N[C@@H](CCCCN)C(=O)N[C@@H](CCCCN)C(=O)N[C@@H](CC(C)C)C(=O)N[C@@H](CCC(N)=O)C(=O)N[C@@H](CC(=O)O)C(=O)N[C@H](C(=O)N[C@@H](Cc1c[nH]cn1)C(=O)N[C@@H](CC(N)=O)C(=O)N[C@@H](Cc1ccccc1)C(N)=O)C(C)C)C(C)C` [[His^5]hPTH(1-34)NH2] (H-SVSEHQLMHNLGKHLNSMERVEWLRKKLQDVHNF-NH2; N-terminus assumed), the “R0:RG” value in test [1] is 160.

Regarding `CSCC[C@H](NC(=O)[C@H](CC(C)C)NC(=O)[C@H](CCC(N)=O)NC(=O)[C@H](Cc1c[nH]cn1)NC(=O)[C@H](CCC(=O)O)NC(=O)[C@H](CO)NC(=O)[C@@H](NC(=O)[C@H](C)N)C(C)C)C(=O)N[C@@H](Cc1c[nH]cn1)C(=O)N[C@@H](CC(N)=O)C(=O)N[C@@H](CC(C)C)C(=O)NCC(=O)N[C@@H](CCCCN)C(=O)N[C@@H](Cc1c[nH]cn1)C(=O)N[C@@H](CC(C)C)C(=O)N[C@@H](C)C(=O)N[C@@H](CO)C(=O)N[C@H](C(=O)N[C@@H](CCC(=O)O)C(=O)N[C@@H](CCCNC(=N)N)C(=O)N[C@@H](CCSC)C(=O)N[C@@H](CCC(N)=O)C(=O)N[C@@H](Cc1c[nH]c2ccccc12)C(=O)N[C@@H](CC(C)C)C(=O)N[C@@H](CCCNC(=N)N)C(=O)N[C@@H](CCCCN)C(=O)N[C@@H](CCCCN)C(=O)N[C@@H](CC(C)C)C(=O)N[C@@H](CCC(N)=O)C(=O)N[C@@H](CC(=O)O)C(=O)N[C@H](C(=O)N[C@@H](Cc1c[nH]cn1)C(=O)N[C@@H](CC(N)=O)C(=O)N[C@@H](Cc1ccccc1)C(N)=O)C(C)C)C(C)C` [[His^5]rPTH(1-34)NH2] (H-AVSEHQLMHNLGKHLASVERMQWLRKKLQDVHNF-NH2; N-terminus assumed), in test [1], the “R0:RG” value came out at 138.

Consider `CC[C@H](C)[C@H](NC(=O)[C@H](CCC(=O)O)NC(=O)[C@H](CO)NC(=O)[C@@H](NC(=O)[C@H](C)N)C(C)C)C(=O)N[C@@H](CCC(N)=O)C(=O)N[C@@H](CC(C)C)C(=O)N[C@@H](CCSC)C(=O)N[C@@H](Cc1c[nH]cn1)C(=O)N[C@@H](CC(N)=O)C(=O)N[C@@H](CC(C)C)C(=O)NCC(=O)N[C@@H](CCCCN)C(=O)N[C@@H](Cc1c[nH]cn1)C(=O)N[C@@H](CC(C)C)C(=O)N[C@@H](C)C(=O)N[C@@H](CO)C(=O)N[C@H](C(=O)N[C@@H](CCC(=O)O)C(=O)N[C@@H](CCCNC(=N)N)C(=O)N[C@@H](CCSC)C(=O)N[C@@H](CCC(N)=O)C(=O)N[C@@H](Cc1c[nH]c2ccccc12)C(=O)N[C@@H](CC(C)C)C(=O)N[C@@H](CCCNC(=N)N)C(=O)N[C@@H](CCCCN)C(=O)N[C@@H](CCCCN)C(=O)N[C@@H](CC(C)C)C(=O)N[C@@H](CCC(N)=O)C(=O)N[C@@H](CC(=O)O)C(=O)N[C@H](C(=O)N[C@@H](Cc1c[nH]cn1)C(=O)N[C@@H](CC(N)=O)C(=O)N[C@@H](Cc1ccccc1)C(N)=O)C(C)C)C(C)C` [rPTH(1-34)NH2, reference compound], for which the “R0:RG” value in test [1] is given as 7.

As to “A18,22,26-PTHrP(1-28) (AVSEHQLLHDKGKSIQDARRRAFLHALI-NH2) [A18, 22, 26-PTHrP(1-28)NH]”, the “screen cAMP (% parent)” value in test [2] came to 343 % parent. Moreover, in test [3], the “screen human PIR RG (% parent)” value is reported as 167 % parent. Besides, the “screen human PIR R0 (% parent)” value in test [1] came out at 160 % parent.

“A18,26,L22-PTHrP(1-28) (AVSEHQLLHDKGKSIQDARRRLFLHALI-NH2) [A18, 26, L22-PTHrP(1-28)NH]”: the “screen cAMP (% parent)” value in test [2] is recorded as 252 % parent. For the same compound, the “screen human PIR RG (% parent)” value in test [3] is reported as 163 % parent. Besides, in test [1], the “screen human PIR R0 (% parent)” value is on record as 133 % parent.

“A18,26,N22-PTHrP(1-28) (AVSEHQLLHDKGKSIQDARRRNFLHALI-NH2) [A18, 26, N22-PTHrP(1-28)NH]”: in test [2], the “screen cAMP (% parent)” value amounted to 265 % parent. Further, the “screen human PIR RG (% parent)” value in test [3] stood at 161 % parent. Besides, the “screen human PIR R0 (% parent)” value in test [1] amounted to 136 % parent.

Turning to “A18,26,S22-PTHrP(1-28) (AVSEHQLLHDKGKSIQDARRRSFLHALI-NH2) [A18, 26, S22-PTHrP(1-28)NH]”, the “screen cAMP (% parent)” value in test [2] is 229 % parent. Also, in test [3], the “screen human PIR RG (% parent)” value is 148 % parent. Moreover, in test [1], the “screen human PIR R0 (% parent)” value came out at 133 % parent.

For “A18,26,W22-PTHrP(1-28) (AVSEHQLLHDKGKSIQDARRRWFLHALI-NH2) [A18, 26, W22-PTHrP(1-28)NH]”, in test [2], the “screen cAMP (% parent)” value worked out at 188 % parent. Moreover, the “screen human PIR RG (% parent)” value in test [3] is given as 120 % parent. Moreover, the “screen human PIR R0 (% parent)” value in test [1] is 126 % parent.
